The values that follow come from patent EP3807270B1, “NOVEL HETEROARYL HETEROCYCLYL COMPOUNDS FOR THE TREATMENT OF AUTOIMMUNE DISEASE” (F. Hoffmann-La Roche AG, priority 2018, dated 2019).

The term inhibition denotes the drop in the measured response relative to a control, in per cent.

Data set [1] addresses T1, hTLR9 (Homo sapiens, UniProt Q9NR96).
T1 sequence (Q9NR96 26-1032): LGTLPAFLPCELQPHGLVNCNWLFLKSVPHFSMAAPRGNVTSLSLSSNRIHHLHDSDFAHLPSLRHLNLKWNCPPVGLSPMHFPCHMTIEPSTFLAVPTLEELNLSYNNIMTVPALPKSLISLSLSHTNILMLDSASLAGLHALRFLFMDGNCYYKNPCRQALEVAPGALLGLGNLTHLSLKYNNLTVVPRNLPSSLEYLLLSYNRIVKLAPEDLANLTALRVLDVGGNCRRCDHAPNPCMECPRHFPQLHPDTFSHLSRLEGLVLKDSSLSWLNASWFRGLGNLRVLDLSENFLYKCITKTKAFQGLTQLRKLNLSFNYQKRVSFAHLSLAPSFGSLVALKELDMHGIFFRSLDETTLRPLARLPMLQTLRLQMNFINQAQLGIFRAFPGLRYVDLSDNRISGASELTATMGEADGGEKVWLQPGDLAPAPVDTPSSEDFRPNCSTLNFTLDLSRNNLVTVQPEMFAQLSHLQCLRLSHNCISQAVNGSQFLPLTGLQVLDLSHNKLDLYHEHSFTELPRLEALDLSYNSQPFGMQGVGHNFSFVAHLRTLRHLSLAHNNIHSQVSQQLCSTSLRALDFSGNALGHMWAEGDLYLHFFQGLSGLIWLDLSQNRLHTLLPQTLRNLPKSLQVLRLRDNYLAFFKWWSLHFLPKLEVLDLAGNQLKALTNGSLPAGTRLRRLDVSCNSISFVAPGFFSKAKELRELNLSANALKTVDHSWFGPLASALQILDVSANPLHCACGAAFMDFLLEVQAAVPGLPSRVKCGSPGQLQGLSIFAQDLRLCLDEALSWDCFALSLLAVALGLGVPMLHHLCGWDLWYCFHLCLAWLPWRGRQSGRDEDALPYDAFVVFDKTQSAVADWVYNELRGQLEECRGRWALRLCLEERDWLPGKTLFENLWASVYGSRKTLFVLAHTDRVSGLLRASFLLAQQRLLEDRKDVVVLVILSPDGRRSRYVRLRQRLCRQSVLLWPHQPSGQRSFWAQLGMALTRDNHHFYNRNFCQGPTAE
The data set is described as follows: HEK293-Blue-hTLR-9 cells assay (SEAP reporter, ODN2006 stimulation). Details: host or cells: HEK293 (HEK-Blue). The conditions noted are these: HEK293-Blue-hTLR9 cells, ODN2006, 20 hrs; read-out: HEK/hTLR9 IC50. Type of data set: cell-based. The procedure, abridged:
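HEK293-Blue-hTLR9 cells (250,000-450,000 cells/mL) in DMEM with 10% FBS were treated with serially diluted compound (1% DMSO final) plus ODN2006 for 20 hrs at 37 °C. Supernatant SEAP activity was measured with QUANTI-Blue substrate for 2 hrs at 37 °C, reading absorbance at 620-655 nm.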

For data set [2], the target named is T2, CYP2D6 (Homo sapiens, UniProt P10635).
T2 construct: tissue BD-Gentest 452117; host or cells: human liver microsomes
T2 sequence (P10635 whole entry): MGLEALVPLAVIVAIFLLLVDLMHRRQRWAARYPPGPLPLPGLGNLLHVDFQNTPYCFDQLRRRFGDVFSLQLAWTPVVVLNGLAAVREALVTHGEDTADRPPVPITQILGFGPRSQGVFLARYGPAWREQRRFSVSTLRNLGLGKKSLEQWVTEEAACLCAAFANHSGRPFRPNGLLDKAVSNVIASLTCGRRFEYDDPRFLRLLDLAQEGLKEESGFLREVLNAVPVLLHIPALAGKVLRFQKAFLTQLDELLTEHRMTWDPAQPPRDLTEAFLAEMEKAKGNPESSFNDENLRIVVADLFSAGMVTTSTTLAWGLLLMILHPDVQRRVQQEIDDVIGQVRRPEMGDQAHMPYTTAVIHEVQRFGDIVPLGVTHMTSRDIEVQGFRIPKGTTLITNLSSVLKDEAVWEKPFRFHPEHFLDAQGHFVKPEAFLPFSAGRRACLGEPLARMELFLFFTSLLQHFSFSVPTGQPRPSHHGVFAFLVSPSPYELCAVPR
Put plainly: CYP inhibition assay in human liver microsome. Type of data set: in vitro ADME. The note with it: human liver microsomes, probe dextromethorphan, 10µM test compound, dextromethorphan substrate, <0: not or weak inhibitor, read-out: CYP 2D6 inhibition %@10µM. Summed up: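 HLM mixed with CYP2D6 substrate, preincubated 10 min at 37 °C, started with NADPH regenerating system and run 10 min at 37 °C before acetonitrile quench. Metabolite measured by RapidFire MS/MS against D3-dextrorphan internal standard. % inhibition scaled between DMSO and concentrated-inhibitor controls.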
On the technique in general: Microsomes from liver hold many membrane-bound enzymes, among them those of drug oxidation.

On to `C[C@@H]1CN(c2ccc(C#N)c3ncccc23)C[C@H](CN2CCCN(c3ncc4c(n3)CCNC4)CC2)O1` [Example 39, 5-[(2R,6S)-2-methyl-6-[[4-(5,6,7,8-tetrahydropyrido[4,3-d]pyrimidin-2-yl)-1,4-diazepan-1-yl]methyl]morpholin-4-yl]quinoline-8-carbonitrile], for which the IC50 in data set [1] was found to be 90 nM. In data set [2], the inhibition at 10 min, 10 µM was determined as 8.5%.
With `C[C@@H]1CN(c2ccc(C#N)c3ncccc23)C[C@H](CN2CCN(c3ncc4c(n3)CCNC4)CC2)O1` [Example 29, 5-[(2R,6S)-2-methyl-6-[[4-(5,6,7,8-tetrahydropyrido[4,3-d]pyrimidin-2-yl)piperazin-1-yl]methyl]morpholin-4-yl]quinoline-8-carbonitrile], the IC50 in data set [1] amounted to 122 nM. The inhibition at 10 min, 10 µM in data set [2] stood at 16.5%.
On the same counts, the results for `C[C@@H]1CN(c2ccc(C#N)c3nccnc23)C[C@H](CN2CCN(c3ccc4c(n3)CN[C@@H]4C)CC2)O1` (single isomer, unassigned) [Example 79] are 108 nM and 5.5%.
On to `C[C@@H]1CN(c2ccc(C#N)c3ncccc23)C[C@H](CN2CCN(c3ccc4c(n3)CCNC4)CC2)O1` [Example 14, 5-[(2R,6S)-2-methyl-6-[[4-(5,6,7,8-tetrahydro-1,6-naphthyridin-2-yl)piperazin-1-yl]methyl]morpholin-4-yl]quinoline-8-carbonitrile], for which the IC50 in data set [1] is 58 nM. The inhibition at 10 min, 10 µM in data set [2] was -6%.
For `C[C@@H]1CN(c2ccc(C#N)c3ncccc23)C[C@H](CN2CCN(c3ccc4c(c3)CN(CCO)C4)CC2)O1` [Example 16, 5-[(2S,6R)-2-[[4-[2-(2-hydroxyethyl)isoindolin-5-yl]piperazin-1-yl]methyl]-6-methyl-morpholin-4-yl]quinoline-8-carbonitrile], in data set [1], the IC50 stood at 91 nM. Also, the inhibition at 10 min, 10 µM in data set [2] was found to be 2.5%.
